# Data reported in PMC3495945, “Org 214007-0: A Novel Non-Steroidal Selective Glucocorticoid Receptor Modulator with Full Anti-Inflammatory Properties and Improved Therapeutic Index” (PLoS ONE, 2012).
# Columns and labels:
# [1] = tested on: endometrium in estrogen-primed immature rabbits; assay: McPhail test (agonistic, progestational activity); type: in vivo, rabbit; details: 0-4 scale; 5 days; MPA 0.05 mg/kg/day, Org 214007-0 0.5 mg/kg/day; n=2
# Description: The McPhail (or anti-McPhail) test was used to evaluate potential progestational (or anti-progestational) activity of Org 214007-0 on the endometrium in estrogen-primed immature rabbits after once-daily administration. The female NZW rabbits were housed in pairs in a light- and temperature-controlled room, fed daily with 40 - 50 g standard pelleted food and with free access to tap-water. Before treatment with compounds rabbits were primed daily in the morning with a subcutaneous dose of 2 μg estradiol benzoate for 8 days. […] Transverse sections were prepared, stained with haematoxylin-eosin and evaluated microscopically. Endometrial development was scored on a 0-4 scale as follows: score 0: no development of glands; score 1: start of development of glands; score 2: clear-cut development of glands with ducts beginning to branch; score 3: about 2/3 of stroma bearing glandual tissue; score 4: more than 2/3 of stroma bearing glandular tissue. A score of 2 or higher in both rabbits was evaluated as a positive resonse.
# For both the agonistic and antagonistic test immature female NZW rabbits (n=2 per treatment group) were primed with estrogen. […] One day after the last treatment the uterus was dissected and endometrial development was scored on a 0-4 scale. […]
# [2] = tested on: endometrium in estrogen-primed immature rabbits; assay: anti-McPhail test (antagonistic, anti-progestational activity); type: in vivo, rabbit; details: 0-4 scale; 7 days with progesterone; RU486 4 mg/kg/day, Org 214007-0 0.5 mg/kg/day oral; n=2
# Description: For the anti-McPhail test, the estrogen-primed rabbits were subsequently treated for 7 days with inducer progesterone (0.25 mg/kg/day s.c.) in combination with an oral treatment of either placebo, reference RU486 (4 mg/kg/day) or Org 214007-0 (0.5 mg/kg/day). The uterus preparation and evaluation of the endometrium was performed as described above.
# For the antagonistic test, after oestrogen priming, rabbits were treated for 7 days with progesterone and placebo, reference RU486 or Org 214007-0. One day after the last treatment the uterus was dissected and endometrial development was scored on a 0-4 scale. […] After treatment with Org 214007-0 no reduction of the endometrial transformation was observed (score 3.31), indicative for no anti-progestagenic activity
# LPS-induced TNFα release = assay: LPS-induced TNFα acute inflammation mouse model; type: in vivo; details: RU486 50 mg/kg s.c. 30 minutes before oral compound dosing
# Description: For both the LPS-induced TNFα as well as the anti-CD3 induced IL-2 model, female Balb/c mice of 8–12 week old were used. Mice were treated orally with 0.2 ml compound or vehicle (water/mannitol (5%) with 5% DMSO/5% chremophore for the LPS model or with 0.5% gelatine for the anti-CD3 model). One hour after oral treatment animals were challenged i.p. with 0.2 ml of either 20 μg/mouse LPS (Sigma, E. coli serotype 055:B5) or 5 µg/mouse hamster anti-CD3 monoclonal (BD Biosciences Pharmingen, art. nr. 553057, clone 145-2C11). Ninety minutes after LPS injection or 3 hours after anti-CD3 challenge, blood samples were collected and serum levels of TNFα or IL-2 were determined via specific ELISAs (BD Biosciences Pharmingen, San Diego, CA, USA). In the experiment that included treatment with RU486 to block GR, mice were dosed subcutaneously with 50 mg/kg RU486 30 minutes before the oral compound dosing. ED50 and % efficacy (maximal percentage inhibition of TNFα or IL-2 release) are determined using a 3 parameter sigmoidal curve calculation. Statistical analysis of the results was performed using an one-way ANOVA (log) test.
# [3] = target: His-GR-LBD (F602S mutated); assay: AlphaScreen or HTRF; co-factor peptide recruitment assay (Eu/APC fluorescence); 10 nM His-GR-LBD (F602S) pre-incubated 3 h at 4°C with Org 214007-0 (0.032 nM to 10 μM), then 100 nM TIF2-3 peptide, 8 nM streptavidin-APC and 1.25 nM anti-His-Eu, 20 h at 4°C
compound,measurement,setting,value
"CC(=O)O[C@]1(C(C)=O)CC[C@H]2[C@@H]3C[C@H](C)C4=CC(=O)CC[C@]4(C)[C@H]3CC[C@@]21C [MPA, medroxyprogesterone acetate, reference compound]","endometrial development score, agonistic test",[1],2.5
"CC#C[C@]1(O)CC[C@H]2[C@@H]3CCC4=CC(=O)CCC4=C3[C@@H](c3ccc(N(C)C)cc3)C[C@@]21C [RU486, mifepristone, reference compound]","endometrial development score, antagonistic test",[2],0.5
same,effect of RU486 on inhibition of TNFα by Org 214007-0 or prednisolone,LPS-induced TNFα release,fully antagonized
peptide representing Transcriptional Intermediary Factor 2 - LXXLL motif 3 (TIF2-3),"percentage maximal efficacy of peptide recruitment with Org 214007-0, relative to prednisolone (100%)",[3],67%
